Experiment: Tested for the NMDA antagonist activity using a functional assay, by protection of cultured hippocampus neurons from the toxic effects of extracellularly applied glutamate

Structure (SMILES)	IC50
OC(CN1CCC(Cc2ccc(F)cc2)CC1)c1ccc(Cl)cc1 (stereo not given)	1000 nM
C[C@@H]([C@H](O)c1ccc2c(c1)CC(=O)N2)N1CCC(Cc2ccccc2)CC1 [5-[(1R,2S)-2-(4-Benzyl-piperidin-1-yl)-1-hydroxy-propyl]-1,3-dihydro-indol-2-one]	231 nM
C[C@@H]([C@@H](O)c1ccc2c(c1)CC(=O)N2)N1CCC(c2ccccc2)CC1 [5-[(1S,2S)-1-Hydroxy-2-(4-phenyl-piperidin-1-yl)-propyl]-1,3-dihydro-indol-2-one]	40 nM
C[C@@H]([C@@H](O)c1ccc2c(c1)CC(=O)N2)N1CCC(Cc2ccccc2)CC1 [5-[(1S,2S)-2-(4-Benzyl-piperidin-1-yl)-1-hydroxy-propyl]-1,3-dihydro-indol-2-one]	111 nM
O=C1Cc2cc(C(O)CN3CCC(Cc4ccc(F)cc4)CC3)ccc2N1 (stereo not given) [5-{2-[4-(4-Fluoro-benzyl)-piperidin-1-yl]-1-hydroxy-ethyl}-1,3-dihydro-indol-2-one]	600 nM
